Consider 65 compounds from patent US8741892B2, “Compounds” (Boehringer Ingelheim International GmbH, priority 2011, dated 2014).

T1 sequence (P41594 21-1212): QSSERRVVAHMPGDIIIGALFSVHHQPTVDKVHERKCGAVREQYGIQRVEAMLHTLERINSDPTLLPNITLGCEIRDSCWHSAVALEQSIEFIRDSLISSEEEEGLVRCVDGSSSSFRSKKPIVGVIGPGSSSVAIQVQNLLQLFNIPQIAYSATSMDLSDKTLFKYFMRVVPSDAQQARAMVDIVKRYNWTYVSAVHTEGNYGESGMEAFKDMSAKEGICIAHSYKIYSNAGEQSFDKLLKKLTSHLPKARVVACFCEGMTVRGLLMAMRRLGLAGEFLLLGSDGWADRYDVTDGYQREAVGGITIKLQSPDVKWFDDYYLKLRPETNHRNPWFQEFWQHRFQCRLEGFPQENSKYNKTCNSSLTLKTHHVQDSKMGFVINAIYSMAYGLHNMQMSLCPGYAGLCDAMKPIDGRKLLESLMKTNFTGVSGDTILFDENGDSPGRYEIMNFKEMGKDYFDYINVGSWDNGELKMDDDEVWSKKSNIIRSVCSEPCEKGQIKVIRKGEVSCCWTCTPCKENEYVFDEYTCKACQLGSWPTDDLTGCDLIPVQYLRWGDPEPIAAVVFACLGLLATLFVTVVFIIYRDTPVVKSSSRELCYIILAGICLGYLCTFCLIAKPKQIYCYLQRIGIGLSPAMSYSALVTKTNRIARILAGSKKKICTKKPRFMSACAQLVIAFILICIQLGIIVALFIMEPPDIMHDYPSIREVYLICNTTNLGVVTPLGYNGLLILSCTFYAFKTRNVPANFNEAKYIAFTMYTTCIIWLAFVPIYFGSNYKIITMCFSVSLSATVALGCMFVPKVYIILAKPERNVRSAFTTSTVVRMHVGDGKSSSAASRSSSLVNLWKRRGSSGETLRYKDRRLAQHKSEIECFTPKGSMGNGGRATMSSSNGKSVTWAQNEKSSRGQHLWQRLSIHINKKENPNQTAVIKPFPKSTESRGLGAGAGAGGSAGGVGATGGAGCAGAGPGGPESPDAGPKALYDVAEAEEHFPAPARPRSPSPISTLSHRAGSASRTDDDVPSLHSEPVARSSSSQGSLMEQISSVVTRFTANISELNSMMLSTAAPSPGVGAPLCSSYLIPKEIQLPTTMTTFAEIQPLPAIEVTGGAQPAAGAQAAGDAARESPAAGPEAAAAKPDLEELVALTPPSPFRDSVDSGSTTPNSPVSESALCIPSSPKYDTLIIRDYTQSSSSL

This test addresses T1, human recombinant mGluR5 (Homo sapiens, UniProt P41594).
T1 construct: expressed in transfected cells; host or cells: HEK 293
The test is described as follows: positive modulation of mGluR5, calcium based FLIPR assay. As to conditions: HEK 293 cell line expressing human recombinant mGluR5; EC50 of the modulation from peak Ca fluorescence signal after glutamate at approx. 5% basal stimulation. The method, boiled down:
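HEK 293 cells expressing human recombinant mGluR5, Calcium-4 dye-loaded in Ringer solution pH 7.4. Compound (1% DMSO final) preincubated 5 min, then glutamate at ~5% of maximal effect added; peak Ca2+ fluorescence gives EC50 by nonlinear regression, normalized to DMSO (100%) and 10 μM CDPPB (200%) controls.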
`COc1ccc(-c2cc(-c3ccccc3)n(CC(=O)N3CCc4nc(C)sc4CC3)n2)cc1C` [Example 7.02.240]: the EC50 came out at 85 nM.
As for `Cc1cnc(N2CCN(C(=O)Cn3nc(-c4ccc(OC(F)F)cc4)cc3-c3ccccc3)CC2)o1` [Example 7.02.226], the EC50 was found to be 11 nM.
Consider `Cc1cc(-c2cc(C3CC3)n(CC(=O)N3CCc4nc(N)sc4CC3)n2)ccc1F` [Example 7.02.036], for which the EC50 came to 136 nM.
Consider `Cc1ccc(-c2cc(-c3ccccc3)n(CC(=O)N3CCc4nc(N)sc4CC3)n2)nc1C` [Example 7.02.123], for which the EC50 came out at 71 nM.
The result for `COc1cc(-c2cc(-c3ccccc3)n(CC(=O)N3CC=C(c4ncc(C)o4)CC3)n2)ccc1F` [Example 7.02.153] reads 15 nM.
The result for `CCc1cc(-c2cccc(C)c2)nn1CC(=O)N1CCc2nc(N)sc2CC1` [Example 7.02.079] reads 182 nM; that for `CCCc1cc(-c2ccc(F)c(C)n2)nn1CC(=O)N1Cc2nc(C)sc2C1` [Example 7.02.248], 290 nM; that for `CCc1cc(-c2ccc(F)c(C)c2)nn1CC(=O)N1CCc2ccc(OC)cc2CC1` [Example 7.01.065], 173 nM.
The result for `CCCc1cc(-c2ccc(F)c(C)c2)nn1CC(=O)N1CCN(c2nc(C)co2)CC1` [Example 7.02.166] reads 149 nM; that for `COc1cc(C2=CCN(C(=O)Cn3nc(-c4ccc(C)c(C)c4)cc3-c3ccccc3)CC2)ncn1` [Example 7.02.087], 28 nM; that for `CCc1cc(-c2ccc(F)c(C)c2)nn1CC(=O)N1CCc2nc(C)sc2CC1` [Example 7.02.024], 29 nM.
Turning to `CCc1cc(-c2ccc(F)c(C)c2)nn1CC(=O)N1CCc2nc(C)sc2CC1C` (centres unmarked) [Example 7.01.074], the EC50 worked out at 91 nM.
The value for `Cc1cc(-c2cc(-c3ccccc3)n(CC(=O)N3CCc4ccccc4C3)n2)ccc1F` [Example 7.01.087] was 125 nM.
As to `COCCCc1cc(-c2ccc(F)c(C)c2)nn1CC(=O)N1CCc2nc(N)sc2CC1` [Example 7.02.104], the EC50 came out at 48 nM.
`Cc1cc(-c2cc(-c3ccccc3)n(CC(=O)N3CCC(c4ccccn4)CC3)n2)ccc1F` [Example 7.02.013]: the EC50 is 92 nM.
The result for `Cc1nc2c(s1)CCN(C(=O)Cn1nc(-c3ccc(C)c(F)c3)cc1-c1ccccc1)CC2` [Example 7.02.251] reads 34 nM.
The value for `COc1ccc(-c2cc(C(C)C)n(CC(=O)N3CCc4nc(N)sc4CC3)n2)cc1` [Example 7.02.042] was 192 nM.
As to `Cc1nnc(N2CCN(C(=O)Cn3nc(-c4cc(C)c(F)cn4)cc3-c3ccccc3)CC2)o1` [Example 7.02.180], the EC50 is 1070 nM.
The value for `Cc1nc2c(s1)CN(C(=O)Cn1nc(-c3ccc(F)c(C)c3)cc1CC(C)C)C2` [Example 7.02.121] was 49 nM; that for `Cc1cnc(C2=CCN(C(=O)Cn3nc(-c4cccc(Cl)c4)cc3-c3ccccc3)CC2)o1` [Example 7.02.142] was 27 nM.
Take `COc1cccc(C2CCN(C(=O)Cn3nc(-c4ccc(F)c(C)c4)cc3-c3ccccc3)CC2)c1` [Example 7.02.146]: the concentration for a half-maximal effect (EC50) stood at 295 nM.
The result for `O=C(Cn1nc(-c2ccccc2)cc1-c1ccccc1)N1CCc2cc(C(F)(F)F)ccc2C1` [Example 7.01.010] reads 695 nM; that for `Cc1nnc(C2=CCN(C(=O)Cn3nc(-c4ccc(F)c(C)c4)cc3-c3ccccc3)CC2)o1` [Example 7.02.115], 8 nM.
Consider `COc1cc(C2CCN(C(=O)Cn3nc(-c4ccc(C)c(C)c4)cc3-c3ccccc3)CC2)ncn1` [Example 7.02.091], for which the EC50 was found to be 115 nM.
In the case of `CCc1nnc(C2CCN(C(=O)Cn3nc(-c4ccc(F)c(C)c4)cc3-c3ccccc3)CC2)o1` [Example 7.02.218], the concentration giving a half-maximal response (EC50) came out at 54 nM.
The value for `O=C(Cn1nc(-c2ccccc2)cc1-c1ccccc1)N1CCN(c2nccc3sccc23)CC1` [Example 7.01.048] was 573 nM; that for `Cc1nc2c(o1)CN(C(=O)Cn1nc(-c3ccc(F)c(C)c3)cc1-c1ccccc1)CC2` [Example 7.02.097] was 8 nM; that for `Cc1cnc(C2CCN(C(=O)Cn3nc(-c4cccc(C#N)c4)cc3-c3ccccc3)CC2)o1` [Example 7.02.194] was 63 nM.
The result for `O=C(Cn1nc(-c2ccccc2)cc1-c1ccccc1)N1CCC(c2noc3ccccc23)CC1` [Example 7.02.007] reads 600 nM; that for `CCCc1cc(-c2ccc(F)c(C)c2)nn1CC(=O)N1CCC(c2ncc(C)o2)CC1` [Example 7.02.208], 36 nM.
Take `Cc1nc2n(n1)CCN(C(=O)Cn1nc(-c3ccc(F)c(C)c3)cc1-c1ccccc1)CC2` [Example 7.02.231]: the EC50 was found to be 19 nM.
Turning to `Cc1nc2c(s1)CCN(C(=O)Cn1nc(-c3ccc(F)c(C)c3)cc1C1CC1)CC2` [Example 7.02.035], the EC50 stood at 35 nM.
The value for `CNc1nc2c(s1)CCN(C(=O)Cn1nc(-c3ccc(F)c(C)c3)cc1C1CCCCC1)CC2` [Example 7.02.049] was 157 nM; that for `CC(C)c1cc(-c2ccc(F)cc2)nn1CC(=O)N1CCc2nc(N)sc2CC1` [Example 7.02.073] was 627 nM.
Turning to `CCc1cc(-c2ccc(C)c(C)c2)nn1CC(=O)N1CCC(c2ncc(OC)cn2)CC1` [Example 7.02.077], the EC50 came out at 1800 nM.
For the compound `CC1CN(C(=O)Cn2nc(-c3ccccc3)cc2-c2ccccc2)CC(C)N1C(=O)OCc1ccccc1` (centres unmarked) [Example 7.01.025], the EC50 was 1870 nM.
For `Cc1nc2c(o1)CN(C(=O)Cn1nc(-c3ccc(F)c(C)c3)cc1-c1ccccc1)C2` [Example 7.02.212], the concentration for a half-maximal effect (EC50) was 3 nM.
For the compound `CCc1cc(-c2ccc(F)c(C)c2)nn1CC(=O)N1CCN(c2nnc(C(F)(F)F)s2)CC1` [Example 7.02.162], the EC50 worked out at 120 nM.
Regarding `COc1ccc(-c2cc(C(C)C)n(CC(=O)N3Cc4ccc(OC)cc4C3)n2)cc1` [Example 7.02.040], the EC50 turned out to be 1700 nM.
The value for `O=C(Cn1nc(-c2ccccc2)cc1-c1ccccc1)N1CCN(c2ccccc2)C(=O)C1` [Example 7.02.003] was 925 nM; that for `Cc1nc2c(s1)CN(C(=O)Cn1nc(-c3ccc(F)c(C)c3)cc1-c1ccccc1)CC2` [Example 7.01.089] was 22 nM.
The result for `Nc1nc2c(s1)CCN(C(=O)Cn1nc(-c3ccc(F)cc3)cc1-c1ccc(F)cc1)CC2` [Example 7.02.001, 1-(2-Amino-4,5,7,8-tetrahydro-thiazolo (4,5-d)azepin-6-yl)-2-[3,5-bis-(4-fluoro-phenyl)-pyrazol-1-yl]-ethanone] reads 55 nM; that for `Cc1csc(N2CCN(C(=O)Cn3nc(-c4ccc(F)c(C)c4)cc3-c3ccccc3)CC2)n1` [Example 7.02.158], 116 nM.
The result for `Cc1nc2c(s1)CCN(C(=O)Cn1nc(-c3ccc(F)cn3)cc1-c1ccccc1)CC2` [Example 7.02.056] reads 245 nM.
With `Cc1cc(-c2cc(-c3ccccc3)n(CC(=O)N3CC=C(c4ncccn4)CC3)n2)ccc1F` [Example 7.02.014], the EC50 is 21 nM.
Turning to `COc1cc(C2CCN(C(=O)Cn3nc(-c4cccc(C)c4)cc3-c3ccccc3)CC2)ncn1` [Example 7.02.201], the EC50 turned out to be 171 nM.
The result for `CCCc1cc(-c2ccc(F)c(C)c2)nn1CC(=O)N1CCN(c2nnc(C)o2)CC1` [Example 7.02.209] reads 61 nM.
Turning to `CCc1cc(-c2ccc(F)c(C)c2)nn1CC(=O)N1CCc2nc(C)sc2C1` [Example 7.01.067], the EC50 amounted to 122 nM.
The result for `CCc1cc(-c2cccc(Cl)c2)nn1CC(=O)N1CCC(c2nnc(C)o2)CC1` [Example 7.02.113] reads 637 nM; that for `N#Cc1ccc2c(c1)CCN(C(=O)Cn1nc(-c3ccccc3)cc1-c1ccccc1)C2` [Example 7.01.046], 1000 nM.
With `O=C(Cn1nc(-c2ccccc2)cc1-c1ccccc1)N1CCN(c2ccc(F)cc2)C(=O)C1` [Example 7.01.019], the EC50 is 1660 nM.
The value for `Cc1nc2c(s1)CCN(C(=O)Cn1nc(-c3ccc(F)c(C)n3)cc1-c1ccccc1)CC2` [Example 7.02.170] was 30 nM.
The result for `CCc1cc(-c2cc(C)c(F)c(C)c2)nn1CC(=O)N1CCc2nc(C)sc2CC1` [Example 7.02.132] reads 186 nM; that for `CCc1cc(-c2ccc(F)c(C)c2)nn1CC(=O)N1CCC(c2cccc(OC)c2)CC1` [Example 7.02.147], 572 nM.
The value for `Cc1nc2c(o1)CN(C(=O)Cn1nc(-c3ccc(C(F)F)cc3)cc1-c1ccccc1)C2` [Example 7.02.257] was 16 nM.
Take `Nc1ccc2c(c1)CCN(C(=O)Cn1nc(-c3ccccc3)cc1-c1ccccc1)CC2` [Example 7.01.036]: the EC50 is 1320 nM.
As to `O=C(Cn1nc(-c2ccccc2)cc1-c1ccccc1)N1CCc2c(cccc2C(F)(F)F)C1` [Example 7.01.045], the EC50 came out at 689 nM.
The result for `Cc1cc(-c2cc(-c3ccccc3)n(CC(=O)N3CCc4nc(N)oc4CC3)n2)ccc1F` [Example 7.01.094] reads 90 nM; that for `Cc1cnc(-c2cc(-c3ccccc3)n(CC(=O)N3CCc4nc(N)sc4CC3)n2)cc1C` [Example 7.02.127], 200 nM; that for `Cc1nnc(N2CCN(C(=O)Cn3nc(-c4ccc(F)c(C)c4)cc3-c3ccccc3)CC2)o1` [Example 7.02.095], 6 nM.
The result for `CCCc1cc(-c2ccc(F)c(C)c2)nn1CC(=O)N1Cc2nc(C)sc2C1` [Example 7.02.034] reads 42 nM; that for `Cc1cnc(C2CCN(C(=O)Cn3nc(-c4cccc(Cl)c4)cc3-c3ccccc3)CC2)o1` [Example 7.02.144], 68 nM; that for `CCc1cc(-c2ccc(F)c(C)c2)nn1CC(=O)N1CCc2nc(C)oc2CC1` [Example 7.02.066], 24 nM.
Take `CCCc1cc(-c2ccc(F)c(C)c2)nn1CC(=O)N1CCc2nc(C)oc2CC1` [Example 7.02.215]: the 50% effective concentration (EC50) stood at 9 nM.
The value for `COc1cnc(C2=CCN(C(=O)Cn3nc(-c4cccc(C)c4)cc3-c3ccccc3)CC2)nc1` [Example 7.02.204] was 47 nM.
